Assay results reported in PubChem BioAssay AID2060617 (Molecular Pharmacology Branch, DTP, NCI, 2025).

System: 485368-065-R4-J2-PDC spheroids with HUVEC/MSC, viability
Assay: Anticancer human tumor 485368-065-R4-J2-PDC patient-derived pancreatic carcinoma cell line growth inhibition [CLK]
Conditions: for IC50: curve of first compound; for viability, T/C: stronger effect = lower value; active = viability on the fitted dose curve at most 10% of control; inactive = the rest
Summary of the method: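 Patient-derived tumor cells grown as complex spheroids with HUVEC endothelial cells and mesenchymal stem cells, treated with drug combinations. Concentrations descend in half-log steps from near clinical Cmax, or from 10 microM if Cmax unknown.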

[1] = second compound 0.0316 µM, first compound 0.00949 µM
[2] = second compound 0.0316 µM, first compound 0.03 µM
[3] = second compound 0.0316 µM, first compound 0.0949 µM
[4] = second compound 0.0316 µM, first compound 0.3 µM
[5] = second compound 0.1 µM, first compound 0.00949 µM
[6] = second compound 0.1 µM, first compound 0.03 µM
[7] = second compound 0.1 µM, first compound 0.0949 µM
[8] = second compound 0.1 µM, first compound 0.3 µM
[9] = second compound 0.316 µM, first compound 0.00949 µM
[10] = second compound 0.316 µM, first compound 0.03 µM
[11] = second compound 0.316 µM, first compound 0.0949 µM
[12] = second compound 0.316 µM, first compound 0.3 µM
[13] = second compound 1 µM, first compound 0.00949 µM
[14] = second compound 1 µM, first compound 0.03 µM
[15] = second compound 1 µM, first compound 0.0949 µM
[16] = second compound 1 µM, first compound 0.3 µM
[17] = second compound 3.16 µM, first compound 0.00949 µM
[18] = second compound 3.16 µM, first compound 0.03 µM
[19] = second compound 3.16 µM, first compound 0.0949 µM
[20] = second compound 3.16 µM, first compound 0.3 µM
[21] = second compound 10 µM, first compound 0.00949 µM
[22] = second compound 10 µM, first compound 0.03 µM
[23] = second compound 10 µM, first compound 0.0949 µM
[24] = second compound 10 µM, first compound 0.3 µM
[25] = second compound 0.0316 µM, first compound 0.0316 µM
[26] = second compound 0.0316 µM, first compound 0.1 µM
[27] = second compound 0.0316 µM, first compound 0.316 µM
[28] = second compound 0.0316 µM, first compound 1 µM
[29] = second compound 0.0316 µM, first compound 3.16 µM
[30] = second compound 0.0316 µM, first compound 10 µM
[31] = second compound 0.1 µM, first compound 0.0316 µM
[32] = second compound 0.1 µM, first compound 0.1 µM
[33] = second compound 0.1 µM, first compound 0.316 µM
[34] = second compound 0.1 µM, first compound 1 µM
[35] = second compound 0.1 µM, first compound 3.16 µM
[36] = second compound 0.1 µM, first compound 10 µM
[37] = second compound 0.316 µM, first compound 0.0316 µM
[38] = second compound 0.316 µM, first compound 0.1 µM
[39] = second compound 0.316 µM, first compound 0.316 µM
[40] = second compound 0.316 µM, first compound 1 µM
[41] = second compound 0.316 µM, first compound 3.16 µM
[42] = second compound 0.316 µM, first compound 10 µM
[43] = second compound 1 µM, first compound 0.0316 µM
[44] = second compound 1 µM, first compound 0.1 µM
[45] = second compound 1 µM, first compound 0.316 µM
[46] = second compound 1 µM, first compound 1 µM
[47] = second compound 1 µM, first compound 3.16 µM
[48] = second compound 1 µM, first compound 10 µM
[49] = second compound 3.16 µM, first compound 0.0316 µM
[50] = second compound 3.16 µM, first compound 0.1 µM
[51] = second compound 3.16 µM, first compound 0.316 µM
[52] = second compound 3.16 µM, first compound 1 µM
[53] = second compound 3.16 µM, first compound 3.16 µM
[54] = second compound 3.16 µM, first compound 10 µM
[55] = second compound 10 µM, first compound 0.0316 µM
[56] = second compound 10 µM, first compound 0.1 µM
[57] = second compound 10 µM, first compound 0.316 µM
[58] = second compound 10 µM, first compound 1 µM
[59] = second compound 10 µM, first compound 3.16 µM
[60] = second compound 10 µM, first compound 10 µM
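Note: spheroids exposed to compounds for seven days.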
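Throughout, for viability, T/C: 100% = DMSO vehicle control wells.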

C=CC(=O)Nc1cc(Nc2nccc(-c3cn(C)c4ccccc34)n2)c(OC)cc1N(C)CCN(C)C + CNC(=O)c1ccc(Nc2nc(OC3CCCC3)c3c(-c4ccc5nc(C)oc5c4)c[nH]c3n2)c(OC)c1
> 0.3 µM: IC50 (second compound 0.0316 µM) | IC50 (second compound 0.1 µM) | IC50 (second compound 0.316 µM) | IC50 (second compound 1 µM) | IC50 (second compound 3.16 µM) | IC50 (second compound 10 µM)
inactive: viability, T/C (second compound 0.0316 µM, first compound 0.000949 µM) 84.6% | viability, T/C (second compound 0.0316 µM, first compound 0.003 µM) 90% | viability, T/C [1] 88.8% | viability, T/C [2] 93.4% | viability, T/C [3] 101% | viability, T/C [4] 87.4% | viability, T/C (second compound 0.1 µM, first compound 0.000949 µM) 90.1% | viability, T/C (second compound 0.1 µM, first compound 0.003 µM) 89% | viability, T/C [5] 95.6% | viability, T/C [6] 90.1% | viability, T/C [7] 92.2% | viability, T/C [8] 98.4% | viability, T/C (second compound 0.316 µM, first compound 0.000949 µM) 82% | viability, T/C (second compound 0.316 µM, first compound 0.003 µM) 85.1% | viability, T/C [9] 81.6% | viability, T/C [10] 79.5% | viability, T/C [11] 83% | viability, T/C [12] 78% | viability, T/C (second compound 1 µM, first compound 0.000949 µM) 78.4% | viability, T/C (second compound 1 µM, first compound 0.003 µM) 72.6% | viability, T/C [13] 81% | viability, T/C [14] 79.4% | viability, T/C [15] 73.5% | viability, T/C [16] 70.8% | viability, T/C (second compound 3.16 µM, first compound 0.000949 µM) 69.4% | viability, T/C (second compound 3.16 µM, first compound 0.003 µM) 70.9% | viability, T/C [17] 66.6% | viability, T/C [18] 68.4% | viability, T/C [19] 66.8% | viability, T/C [20] 68.7% | viability, T/C (second compound 10 µM, first compound 0.000949 µM) 66.5% | viability, T/C (second compound 10 µM, first compound 0.003 µM) 67.6% | viability, T/C [21] 70.1% | viability, T/C [22] 67.3% | viability, T/C [23] 68.9% | viability, T/C [24] 58.6%

CC1(C)CCC(CN2CCN(c3ccc(C(=O)NS(=O)(=O)c4ccc(NCC5CCOCC5)c([N+](=O)[O-])c4)c(Oc4cnc5[nH]ccc5c4)c3)CC2)=C(c2ccc(Cl)cc2)C1 + CNC(=O)c1ccc(Nc2nc(OC3CCCC3)c3c(-c4ccc5nc(C)oc5c4)c[nH]c3n2)c(OC)c1
6.51 µM: IC50 (second compound 3.16 µM)
6.75 µM: IC50 (second compound 1 µM)
inactive: viability, T/C [25] 101% | viability, T/C [26] 95.1% | viability, T/C [27] 85.5% | viability, T/C [28] 102% | viability, T/C [29] 117% | viability, T/C [30] 28.9% | viability, T/C [31] 98.2% | viability, T/C [32] 97.6% | viability, T/C [33] 98.3% | viability, T/C [34] 105% | viability, T/C [35] 107% | viability, T/C [36] 30.8% | viability, T/C [37] 86.7% | viability, T/C [38] 89.8% | viability, T/C [39] 93.4% | viability, T/C [40] 89.5% | viability, T/C [41] 97.1% | viability, T/C [42] 29.9% | viability, T/C [43] 74.6% | viability, T/C [44] 76% | viability, T/C [45] 80.7% | viability, T/C [46] 87.2% | viability, T/C [47] 98.7% | viability, T/C [48] 32.6% | viability, T/C [49] 74% | viability, T/C [50] 73.9% | viability, T/C [51] 74% | viability, T/C [52] 73.5% | viability, T/C [53] 93.5% | viability, T/C [54] 33.5% | viability, T/C [55] 72.6% | viability, T/C [56] 72% | viability, T/C [57] 62.2% | viability, T/C [58] 72.6% | viability, T/C [59] 90.8% | viability, T/C [60] 35.2%
7.11 µM: IC50 (second compound 0.0316 µM)
6.86 µM: IC50 (second compound 0.316 µM)
6.43 µM: IC50 (second compound 10 µM)
7.32 µM: IC50 (second compound 0.1 µM)

NC(=O)C(=Cn1cnc(-c2cc(C(F)(F)F)cc(C(F)(F)F)c2)n1)c1cncnc1 + CNC(=O)c1ccc(Nc2nc(OC3CCCC3)c3c(-c4ccc5nc(C)oc5c4)c[nH]c3n2)c(OC)c1
2.59 µM: IC50 (second compound 10 µM)
> 3 µM: IC50 (second compound 0.0316 µM) | IC50 (second compound 0.1 µM) | IC50 (second compound 0.316 µM) | IC50 (second compound 1 µM) | IC50 (second compound 3.16 µM)
inactive: viability, T/C [1] 95% | viability, T/C [2] 130% | viability, T/C [3] 179% | viability, T/C [4] 195% | viability, T/C (second compound 0.0316 µM, first compound 0.949 µM) 176% | viability, T/C (second compound 0.0316 µM, first compound 3 µM) 128% | viability, T/C [5] 96.4% | viability, T/C [6] 108% | viability, T/C [7] 173% | viability, T/C [8] 177% | viability, T/C (second compound 0.1 µM, first compound 0.949 µM) 171% | viability, T/C (second compound 0.1 µM, first compound 3 µM) 97.5% | viability, T/C [9] 98.1% | viability, T/C [10] 116% | viability, T/C [11] 160% | viability, T/C [12] 154% | viability, T/C (second compound 0.316 µM, first compound 0.949 µM) 139% | viability, T/C (second compound 0.316 µM, first compound 3 µM) 74.3% | viability, T/C [13] 82.2% | viability, T/C [14] 114% | viability, T/C [15] 141% | viability, T/C [16] 132% | viability, T/C (second compound 1 µM, first compound 0.949 µM) 99.4% | viability, T/C (second compound 1 µM, first compound 3 µM) 62.5% | viability, T/C [17] 80.3% | viability, T/C [18] 114% | viability, T/C [19] 123% | viability, T/C [20] 113% | viability, T/C (second compound 3.16 µM, first compound 0.949 µM) 87.6% | viability, T/C (second compound 3.16 µM, first compound 3 µM) 59.3% | viability, T/C [21] 69.4% | viability, T/C [22] 98.3% | viability, T/C [23] 124% | viability, T/C [24] 98.5% | viability, T/C (second compound 10 µM, first compound 0.949 µM) 80.8% | viability, T/C (second compound 10 µM, first compound 3 µM) 45.4%

Nc1ccccc1NC(=O)c1ccc(CNC(=O)OCc2cccnc2)cc1 + CNC(=O)c1ccc(Nc2nc(OC3CCCC3)c3c(-c4ccc5nc(C)oc5c4)c[nH]c3n2)c(OC)c1
5.1 µM: IC50 (second compound 3.16 µM)
6.55 µM: IC50 (second compound 0.1 µM)
5.72 µM: IC50 (second compound 1 µM)
6.73 µM: IC50 (second compound 0.316 µM)
6.71 µM: IC50 (second compound 0.0316 µM)
inactive: viability, T/C [25] 89.6% | viability, T/C [26] 96.7% | viability, T/C [27] 94.7% | viability, T/C [28] 90.3% | viability, T/C [29] 82.8% | viability, T/C [30] 32.4% | viability, T/C [31] 92.1% | viability, T/C [32] 93.8% | viability, T/C [33] 102% | viability, T/C [34] 87.3% | viability, T/C [35] 81.7% | viability, T/C [36] 31.9% | viability, T/C [37] 74.4% | viability, T/C [38] 79.8% | viability, T/C [39] 83.9% | viability, T/C [40] 89.7% | viability, T/C [41] 83.2% | viability, T/C [42] 33.1% | viability, T/C [43] 86% | viability, T/C [44] 80.8% | viability, T/C [45] 71.3% | viability, T/C [46] 77.9% | viability, T/C [47] 70.6% | viability, T/C [48] 30.6% | viability, T/C [49] 71.5% | viability, T/C [50] 74.8% | viability, T/C [51] 72.2% | viability, T/C [52] 65.9% | viability, T/C [53] 65.6% | viability, T/C [54] 29.3% | viability, T/C [55] 67.6% | viability, T/C [56] 73.9% | viability, T/C [57] 67.8% | viability, T/C [58] 73.6% | viability, T/C [59] 69.8% | viability, T/C [60] 28.6%
5.51 µM: IC50 (second compound 10 µM)
